According to patent publication US6750015B2 (priority 2000, dated 2004):

Target: T1, PR-A (Homo sapiens, UniProt P06401)
T1 construct: expressed in transfected cells
T1 sequence (P06401 1-769 isoform P06401-2): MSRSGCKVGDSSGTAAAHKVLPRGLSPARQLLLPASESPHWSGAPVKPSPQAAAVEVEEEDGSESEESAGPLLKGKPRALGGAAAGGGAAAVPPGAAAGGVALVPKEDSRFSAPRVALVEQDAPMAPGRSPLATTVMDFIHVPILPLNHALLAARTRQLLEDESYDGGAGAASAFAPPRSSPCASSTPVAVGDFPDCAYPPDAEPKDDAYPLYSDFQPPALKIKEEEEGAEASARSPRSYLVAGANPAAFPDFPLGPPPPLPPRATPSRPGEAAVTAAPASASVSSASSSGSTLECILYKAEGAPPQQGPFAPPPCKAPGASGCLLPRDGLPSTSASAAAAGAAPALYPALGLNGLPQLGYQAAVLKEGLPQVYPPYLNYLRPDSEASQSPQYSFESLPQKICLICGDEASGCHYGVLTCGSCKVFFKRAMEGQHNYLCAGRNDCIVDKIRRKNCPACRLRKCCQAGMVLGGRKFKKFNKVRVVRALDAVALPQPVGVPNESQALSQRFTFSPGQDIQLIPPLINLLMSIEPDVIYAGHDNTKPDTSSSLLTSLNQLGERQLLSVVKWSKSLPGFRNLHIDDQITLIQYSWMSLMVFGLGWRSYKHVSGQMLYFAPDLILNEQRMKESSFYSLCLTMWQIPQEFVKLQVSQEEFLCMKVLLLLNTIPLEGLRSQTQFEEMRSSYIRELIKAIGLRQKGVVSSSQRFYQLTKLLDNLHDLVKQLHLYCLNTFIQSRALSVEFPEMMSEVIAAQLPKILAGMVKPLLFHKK
Experiment: Transcriptional assay: integrin alpha 6 promoter-luciferase in HeLa cells cotransfected with PR-A
Assay type: cell-based
Conditions: 10 nM progesterone 24 hours

CC(=O)[C@H]1CC[C@H]2[C@@H]3CCC4=CC(=O)CC[C@]4(C)[C@H]3CC[C@]12C [progesterone]
Transcription of the integrin alpha 6 promoter (luciferase): not regulated at all
